Where “and” joins values, the source holds several entries; their conditions need not be identical. Identical values can stand only once. Positions of bridges follow the written chain, without caps; N, C: chain ends. Non-standard residues stand in square brackets, D forms with d. Residues, ends and D or L forms follow the SMILES beside them. *: point of attachment. Pentanoyl(5-guanidino) = NC(N)=NCCCCC(=O)*; Abu = CC[C@H](N)C(=O)O; Aoc = NCCCCCCCC(=O)O; Ava = NCCCCC(=O)O
What was measured:
[1] = target: Melanin-concentrating hormone receptor 2 (Homo sapiens, UniProt Q969V1)
Sequence of Melanin-concentrating hormone receptor 2 (Q969V1 whole entry): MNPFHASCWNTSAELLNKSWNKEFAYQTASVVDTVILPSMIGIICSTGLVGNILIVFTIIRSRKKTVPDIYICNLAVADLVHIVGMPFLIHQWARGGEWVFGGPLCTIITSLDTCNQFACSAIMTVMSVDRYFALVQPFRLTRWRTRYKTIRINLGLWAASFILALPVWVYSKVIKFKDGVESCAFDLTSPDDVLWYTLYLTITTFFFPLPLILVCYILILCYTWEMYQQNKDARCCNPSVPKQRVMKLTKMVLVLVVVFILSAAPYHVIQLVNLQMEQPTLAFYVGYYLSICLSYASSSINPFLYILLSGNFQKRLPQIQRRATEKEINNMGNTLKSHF

[2] = target: Melanin-concentrating hormone receptor 1 (Homo sapiens, UniProt Q99705)
Sequence of Melanin-concentrating hormone receptor 1 (Q99705 as listed by the source): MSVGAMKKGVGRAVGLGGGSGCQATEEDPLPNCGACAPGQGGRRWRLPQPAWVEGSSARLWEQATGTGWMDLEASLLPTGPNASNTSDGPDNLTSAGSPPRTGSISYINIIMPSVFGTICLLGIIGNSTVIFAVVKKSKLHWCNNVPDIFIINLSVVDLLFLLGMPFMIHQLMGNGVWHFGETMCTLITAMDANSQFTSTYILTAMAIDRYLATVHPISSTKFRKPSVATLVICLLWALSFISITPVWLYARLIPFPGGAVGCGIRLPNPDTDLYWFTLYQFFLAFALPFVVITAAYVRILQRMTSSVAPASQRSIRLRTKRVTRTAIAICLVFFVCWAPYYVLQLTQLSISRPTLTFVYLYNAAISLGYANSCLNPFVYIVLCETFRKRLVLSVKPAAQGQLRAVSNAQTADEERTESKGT

| SMILES | Ki [1] | Ki [2] |
| --- | --- | --- |
| CC(=O)N[C@@H](CCCN=C(N)N)C(=O)N[C@H]1CSSC[C@@H](C(N)=O)NC(=O)[C@@H]2CCCN2C(=O)[C@H](CCCN=C(N)N)NC(=O)[C@H](Cc2ccc(O)cc2)NC(=O)[C@H](C(C)C)NC(=O)[C@H](CCCN=C(N)N)NC(=O)CCCCCCCNC1=O [Aoct8,9,10] (Ac-RC[Aoc]RVYRPC-NH2; disulfide 2-9) | 63 nM | 4800 nM |
| CSCC[C@@H]1NC(=O)[C@@H](NC(=O)[C@H](CCCN=C(N)N)NC(C)=O)CSSC[C@@H](C(N)=O)NC(=O)CCCCNC(=O)[C@H](Cc2ccc(O)cc2)NC(=O)[C@H](C(C)C)NC(=O)[C@H](CCCN=C(N)N)NC(=O)CNC(=O)[C@H](CC(C)C)NC1=O [Ava14,15] | 50 nM | 1.8 nM |
| CSCC[C@@H]1NC(=O)[C@@H](NC(=O)[C@@H](CCCN=C(N)N)NC(C)=O)CSSC[C@@H](C(N)=O)NC(=O)CCCCNC(=O)[C@H](Cc2ccc(O)cc2)NC(=O)[C@H](C(C)C)NC(=O)[C@H](CCCN=C(N)N)NC(=O)CCCCNC1=O [D-Arg6,Ava9,10,Ava14,15] | 45 nM | 69 nM |
| CSCC[C@@H]1NC(=O)[C@@H](NC(=O)[C@@H](CCCN=C(N)N)NC(C)=O)CSSC[C@@H](C(N)=O)NC(=O)CCCCNC(=O)[C@H](Cc2ccc(O)cc2)NC(=O)[C@H](C(C)C)NC(=O)[C@H](CCCN=C(N)N)NC(=O)CNC(=O)[C@H](CC(C)C)NC1=O [D-Arg6,Ava14,15] | 65 nM | 11.3 nM |
| CSCC[C@@H]1NC(=O)[C@@H](NC(=O)CCCN=C(N)N)CSSC[C@@H](C(N)=O)NC(=O)CCCCNC(=O)[C@H](Cc2ccc(O)cc2)NC(=O)[C@H](C(C)C)NC(=O)[C@H](CCCN=C(N)N)NC(=O)CNC(=O)[C@H](CC(C)C)NC1=O [Gbu6,Ava14,15] | 45 nM | 7.9 nM |
| CSCC[C@@H]1NC(=O)[C@@H](NC(=O)CCCCN=C(N)N)CSSC[C@@H](C(N)=O)NC(=O)[C@@H]2CCCN2C(=O)[C@H](CCCN=C(N)N)NC(=O)[C@H](Cc2ccc(O)cc2)NC(=O)[C@H](C(C)C)NC(=O)[C@H](CCCN=C(N)N)NC(=O)CCCCNC1=O [Gva6,Ava9,10] | 48 nM | 5 nM |
| CCCC[C@@H]1NC(=O)[C@@H](NC(=O)CCCCN=C(N)N)CSSC[C@@H](C(N)=O)NC(=O)CCCCNC(=O)[C@H](Cc2ccc(O)cc2)NC(=O)[C@H](C(C)C)NC(=O)[C@H](CCCN=C(N)N)NC(=O)CNC(=O)[C@H](CC(C)C)NC1=O [Gva6,Nle8,Ava14,15] | 70 nM | 4.7 nM |
| CC[C@@H]1NC(=O)[C@@H](NC(=O)CCCCN=C(N)N)CSSC[C@@H](C(N)=O)NC(=O)CCCCNC(=O)[C@H](Cc2ccc(O)cc2)NC(=O)[C@H](C(C)C)NC(=O)[C@H](CCCN=C(N)N)NC(=O)CNC(=O)[C@H](CC(C)C)NC1=O [Gva6,alphaAbu8,Ava14,15] ({Pentanoyl(5-guanidino)}-C[Abu]LGRVY[Ava]C-NH2; disulfide 1-9) | 43 nM | 320 nM |
| CSCC[C@@H]1NC(=O)[C@@H](NC(=O)CCCCN=C(N)N)CSSC[C@@H](C(N)=O)NC(=O)[C@H]2CC[C@H](CC2)NC(=O)[C@H](Cc2ccc(O)cc2)NC(=O)[C@H](C(C)C)NC(=O)[C@H](CCCN=C(N)N)NC(=O)CNC(=O)[C@H](CC(C)C)NC1=O [Gva6,cisAcx14,15] | 3100 nM | 10 nM |
| CSCC[C@@H]1NC(=O)[C@@H](NC(=O)CCCCN=C(N)N)CSSC[C@@H](C(N)=O)NC(=O)CCCNC(=O)[C@H](Cc2ccc(O)cc2)NC(=O)[C@H](C(C)C)NC(=O)[C@H](CCCN=C(N)N)NC(=O)CNC(=O)[C@H](CC(C)C)NC1=O [Gva6,gammaAbu14,15] | 48 nM | 24 nM |
| CSCC[C@@H]1NC(=O)[C@@H](N)CSSC[C@@H](C(N)=O)NC(=O)CCCCNC(=O)[C@H](Cc2ccc(O)cc2)NC(=O)[C@H](C(C)C)NC(=O)[C@H](CCCN=C(N)N)NC(=O)CNC(=O)[C@H](CC(C)C)NC1=O [des(Ac-Arg6),Ava14,15] | 77 nM and 48 nM | 300 nM and 190 nM |
| CSCC[C@@H]1NC(=O)[C@@H](NC(=O)[C@H](CCCNC(=N)N)NC(=O)[C@H](CC(C)C)NC(=O)[C@H](CCSC)NC(=O)[C@H](CC(=O)O)NC(=O)[C@H](Cc2ccccc2)NC(=O)[C@@H](N)CC(=O)O)CSSC[C@@H](C(=O)N[C@@H](Cc2c[nH]c3ccccc23)C(=O)N[C@@H](CCC(N)=O)C(=O)N[C@H](C(=O)O)C(C)C)NC(=O)[C@@H]2CCCN2C(=O)[C@H](CCCNC(=N)N)NC(=O)[C@H](Cc2ccc(O)cc2)NC(=O)[C@H](C(C)C)NC(=O)[C@H](CCCNC(=N)N)NC(=O)CNC(=O)[C@H](CC(C)C)NC1=O [hMCH] | 2.9 nM | – |

The remaining lines, values ahead:

| Ki [1] | Ki [2] | SMILES |
| --- | --- | --- |
| 38 nM | – | CC(=O)N[C@@H](CCCN=C(N)N)C(=O)N[C@H]1CSSC[C@@H](C(N)=O)NC(=O)CCCCNC(=O)[C@H](Cc2ccc(O)cc2)NC(=O)[C@H](C(C)C)NC(=O)[C@H](CCCN=C(N)N)NC(=O)CNC(=O)[C@H](CC(C)C)NC(=O)[C@H](C)NC1=O [Ala8,Ava14,15] (Ac-RCALGRVY[Ava]C-NH2; disulfide 2-10) |
| 20 nM | 340 nM | CSCC[C@@H]1NC(=O)[C@H](NC(=O)[C@H](CCCN=C(N)N)NC(C)=O)CSSC[C@@H](C(N)=O)NC(=O)CCCCNC(=O)[C@H](Cc2ccc(O)cc2)NC(=O)[C@H](C(C)C)NC(=O)[C@H](CCCN=C(N)N)NC(=O)CNC(=O)[C@H](CC(C)C)NC1=O [D-Cys7,Ava14,15] |
| 43 nM | 43 nM | CSCC[C@@H]1NC(=O)[C@@H](NC(=O)[C@H](CCN=C(N)N)NC(C)=O)CSSC[C@@H](C(N)=O)NC(=O)CCCCNC(=O)[C@H](Cc2ccc(O)cc2)NC(=O)[C@H](C(C)C)NC(=O)[C@H](CCCN=C(N)N)NC(=O)CNC(=O)[C@H](CC(C)C)NC1=O [Gpr6,Ava14,15] |
| 33 nM | 83 nM | CC(C)C[C@@H]1NC(=O)[C@H](C)NC(=O)[C@@H](NC(=O)CCCCN=C(N)N)CSSC[C@@H](C(N)=O)NC(=O)CCCCNC(=O)[C@H](Cc2ccc(O)cc2)NC(=O)[C@H](C(C)C)NC(=O)[C@H](CCCN=C(N)N)NC(=O)CNC1=O [Gva6,Ala8,Ava14,15] ({Pentanoyl(5-guanidino)}-CALGRVY[Ava]C-NH2; disulfide 1-9) |
| 35 nM | 25 nM | CSCC[C@@H]1NC(=O)[C@@H](NC(=O)CCCCN=C(N)N)CSSC[C@@H](C(N)=O)NC(=O)CCCCNC(=O)[C@H](Cc2ccc(O)cc2)NC(=O)[C@H](C)NC(=O)[C@H](CCCN=C(N)N)NC(=O)CNC(=O)[C@H](CC(C)C)NC1=O [Gva6,Ala12,Ava14,15] ({Pentanoyl(5-guanidino)}-CMLGRAY[Ava]C-NH2; disulfide 1-9) |
| 40 nM | 45 nM | CSCC[C@@H]1NC(=O)[C@@H](NC(=O)CCCCN=C(N)N)CSSC[C@@H](C(N)=O)NC(=O)CCCCNC(=O)[C@H](Cc2ccc(O)cc2)NC(=O)[C@H](C(C)C)NC(=O)[C@H](CCCN=C(N)N)NC(=O)CCCCNC1=O [Gva6,Ava9,10,Ava14,15] ({Pentanoyl(5-guanidino)}-CM[Ava]RVY[Ava]C-NH2; disulfide 1-8) |
| 38 nM | 66 nM | CSCC[C@@H]1NC(=O)[C@@H](NC(=O)CCCCN=C(N)N)CSSC[C@@H](C(=O)O)NC(=O)CCCCNC(=O)[C@H](Cc2ccc(O)cc2)NC(=O)[C@H](C(C)C)NC(=O)[C@H](CCCN=C(N)N)NC(=O)CNC(=O)[C@H](CC(C)C)NC1=O [Gva6,Ava14,15, OH] |
| 25 nM | 120 nM | CSCC[C@@H]1NC(=O)[C@H](NC(=O)CCCCN=C(N)N)CSSC[C@@H](C(N)=O)NC(=O)CCCCNC(=O)[C@H](Cc2ccc(O)cc2)NC(=O)[C@H](C(C)C)NC(=O)[C@H](CCCN=C(N)N)NC(=O)CNC(=O)[C@H](CC(C)C)NC1=O [Gva6,D-Cys7,Ava14,15] |
| 20 nM | 1350 nM | CSCC[C@@H]1NC(=O)[C@@H](NC(=O)CCCCN=C(N)N)CSSC[C@@H](C(N)=O)NC(=O)CCCCNC(=O)[C@H](Cc2ccc(O)cc2)NC(=O)[C@H](C(C)C)NC(=O)[C@H](CCCN=C(N)N)NC(=O)CNC1=O [Gva6,desLeu9,Ava14,15] ({Pentanoyl(5-guanidino)}-CMGRVY[Ava]C-NH2; disulfide 1-8) |
| 2.7 nM | 0.16 nM | CSCC[C@@H]1NC(=O)[C@@H](NC(=O)[C@H](CCCNC(=N)N)NC(C)=O)CSSC[C@@H](C(N)=O)NC(=O)[C@@H]2CCCN2C(=O)[C@H](CCCNC(=N)N)NC(=O)[C@H](Cc2ccc(O)cc2)NC(=O)[C@H](C(C)C)NC(=O)[C@H](CCCNC(=N)N)NC(=O)CNC(=O)[C@H](CC(C)C)NC1=O [hAc-MCH(6-16)-NH2] |
